Key:
[1] = tested on: mouse liver mitochondria; assay: Mitochondrial inner transmembrane potential (ΔΨm), JC-1 probe, isolated liver mitochondria; type: biochemical; conditions: in vitro
Method: To explore whether LEF (the prodrug) or its active metabolite […]-1726 alter mitochondrial function including the Ca^2+ dependent, cyclosporine A-sensitive mPT, we isolated mouse liver mitochondria and exposed them to LEF or […]-1726, and measured the concentration-dependent effects on the mitochondrial inner transmembrane potential (ΔΨm) using the cationic fluorescent probe, JC-1. Furthermore, the effects on the inductin of the mPT were assessed by monitoring large amplitude swelling at 540 nm.

[2] = tested on: mitochondrial permeability transition pore; assay: Membrane permeability transition (mPT), large amplitude swelling at 540 nm, isolated liver mitochondria; type: biochemical, mouse
Method: To explore whether LEF (the prodrug) or its active metabolite A77-1726 alter mitochondrial function including the Ca^2+ dependent, cyclosporine A-sensitive mPT, we isolated mouse liver mitochondria and exposed them to LEF or A77-1726, and measured the concentration-dependent effects on the mitochondrial inner transmembrane potential (ΔΨm) using the cationic fluorescent probe, JC-1. Furthermore, the effects on the inductin of the mPT were assessed by monitoring large amplitude swelling at 540 nm. In addition, the effects of LEF were determined in cultured immortalized human hepatocytes (HC04 cell line).

[3] = tested on: mitochondria; assay: mPT-mediated cytochrome c release from mitochondria; type: biochemical
Description: (§1) The cell line of the invention can further be used in a method for assessing toxicity of chemicals or drugs using methods known in the art. For example, lactate dehydrogenase (LDH) leakage from cells into the culture medium is an established method to assess cell injury. Enzyme activity in the culture medium following exposure of cells to a chemical for a certain time will be expressed as percentage of the total of intra- and extracellular enzyme activity. Another example is the determination of cytochrome c release from mitochondria into the cytosol, which is a measure of mitochondria-mediated induction of lethal cell injury. Cells can be exposed to various concentrations of a chemical for various time points. The cells can then be harvested, homogenized, and mitochondria and cytosol isolated by differential centrifugation. The subcellular fractions can then be lysed, loaded onto SDS-PAGE gels, and probed with a specific antibody against cytochrome c.
Both LEF and A77-1726 attenuated the ΔΨm (at ≧1 uM).

[4] = tested on: HC04 cell line; assay: Acetaminophen-induced mPT-associated cytotoxicity in cultured immortalized human hepatocytes; type: cell-based
Method: Furthermore, the effects on the inductin of the mPT were assessed by monitoring large amplitude swelling at 540 nm. In addition, the effects of LEF were determined in cultured immortalized human hepatocytes (HC04 cell line).

[5] = tested on: HepG2 cells; type: cell-based, human
Description: as §1
To determine whether HC04 cells would respond to a standard hepatotoxicant in vitro, the concentration- and time-dependent toxicity of acetaminophen (APAP) was assessed and compared to that in HepG2 cells.

| SMILES | uncoupling (summary) [1] | inhibition of the mPT (summary) ([2]; in vitro) | protection from the mPT ([2]; mPT caused by KH2PO4 (2 mM)) | protection from the mPT ([2]; mPT caused by nimesulide (30 uM)) | protection from mPT-mediated cytochrome c release from mitochondria [3] | protection from acetaminophen-induced mPT-associated cytotoxicity [4] | LDH release (indicative of cell injury) [5] |
| --- | --- | --- | --- | --- | --- | --- | --- |
| Cc1oncc1C(=O)Nc1ccc(C(F)(F)F)cc1 [LEF, Leflunomide] | weak uncouplers | potent inhibitors | completely protected | completely protected | protected | completely protected |  |
| CC(=O)Nc1ccc(O)cc1 [APAP, acetaminophen] |  |  |  |  |  |  | did not respond |

From patent publication US7781186B2, “Screening methods using normal human liver cell line” (The United States of America as represented by the …, priority 2000, dated 2010)
